Laboratory results published in patent US20130052172A1, “METHODS FOR DIAGNOSING AND TREATING CARDIAC DEFECTS” (priority 2011, published 2013).

Experiments:
rats = assay: Myocardial ischemia/reperfusion by the protocol of example 3 (model not given); format: in vivo, rat; conditions: antibiotics in drinking water
Description: In the following example, methods for assaying myocardial infarction in vitro and in vivo in rats as determined by ischemia/reperfusion studies are described.
An anesthetized rat model was used for in vivo ischemia/reperfusion studies using the general surgical protocol and determination of infarct size (IS) described in “K(ATP) opener-induced delayed cardioprotection: involvement of sarcolemmal and mitochondrial K(ATP) channels, free radicals and MEK½” (Gross, E. et al., J. Mol. Cell. Cardiol. 35, 985-992, 2003), the entirety of which is incorporated herein by reference. Briefly, following anesthesia, a tracheotomy for artificial ventilation was performed, with the left common carotid artery cannulated for blood pressure and heart rate measurements. A thoracotomy was performed at the fifth intercostal space, the pericardium was excised, and a silk ligature was placed distal to the left atrial appendage that spanned to the sternal portion of the left ventricle, which included the left anterior descending coronary artery. Occlusion of the area described [area at risk (AAR)] was created by placing ends of the ligature through a polypropylene tube and fixing the snare to the epicardial surface with a hemostat. After 30 min, the hemostat was released to reperfuse the AAR. Following 2 h of reperfusion, the ligature was again occluded, and the AAR was determined by patent-blue negative staining. The heart was then excised, cross-sectioned into 4 to 5 slices, and separated into normal zone and AAR. Pieces were incubated in 1% 2,3,5-triphenyltetrazolium chloride to determine IS. The heart was then incubated overnight in 10% formaldehyde, and infarcted tissue was dissected from the AAR. IS was expressed as a percentage of the AAR (IS/AAR). Leptin (0.12 μg/kg) was administered intravenously as a bolus at 24 and 12 h before ischemia. Amino acids were administered intravenously as a bolus at 24 and 12 hours before ischemia or dissolved in the drinking water and given 48 hours before ischemia.
For in vitro ischemia/reperfusion studies, hearts were perfused retrogradely, as described previously in Baker, J. et al. (Am. J. Physiol. Heart Circ. Physiol., 2000), the entirety of which is incorporated herein by reference. Briefly, hearts were perfused with modified Krebs-Henseleit buffer (120 mM NaCl, 25 mM NaHCO3, 4.7 mM KCl, 1.2 mM KH2PO4, 1.20 mM MgSO4, 11 mM glucose, and 1.8 mM CaCl2) bubbled with 95% O2-5% CO2 for a 40-minute stabilization period and subjected to 25 minutes of global no-flow ischemia, followed by 180 minutes of reperfusion. Before use, all perfusion fluids were filtered through cellulose acetate membranes with a pore size of 5.0 μm to remove particulate matter. Hearts were kept in temperature-controlled chambers to maintain myocardial temperature at 37° C. A balloon connected to a pressure transducer was inserted into the left ventricle to monitor cardiac function. For some experiments, hearts were stabilized for 25 minutes and then perfused with vancomycin or a mixture of antibiotics for 15 minutes before ischemia/reperfusion. During the initial 40 minute reperfusion period, recovery of mechanical function was measured as left ventricular developed pressure (LVDP) under steady-state conditions and expressed as a percentage of preischemic LVDP. At the end of the 3 hour reperfusion period, hearts were processed and stained with 2,3,5-triphenyltetrazolium chloride dye for IS determination.

[1] = system: metabolites known to be modified by intestinal microbiota; assay: Metabolomic mass spec analysis of blood metabolites; format: in vivo, rat; conditions: rats treated for 7 days
Description: In this example, methods for assaying metabolite levels using mass spectrometry are described. Each sample received was accessioned into the Metabolon Laboratory Information Management System (LIMS) and was assigned by the LIMS a unique identifier, which was associated with the original source identifier only. This identifier was used to track all sample handling, tasks, results etc. The samples (and all derived aliquots) were bar-coded and tracked by the LIMS system. All portions of any sample were automatically assigned their own unique identifiers by the LIMS when a new task was created; the relationship of these samples was also tracked. All samples were maintained at −80° C. until processed.
The sample preparation process was carried out using the automated MicroLab STAR® system from Hamilton Company. Recovery standards were added prior to the first step in the extraction process for Quality Control (QC) purposes. […]
The LC/MS portion of the platform was based on a Waters ACQUITY UPLC and a Thermo-Finnigan LTQ mass spectrometer, which consisted of an electrospray ionization (ESI) source and linear ion-trap (LIT) mass analyzer. […] One aliquot was analyzed using acidic positive ion optimized conditions and the other using basic negative ion optimized conditions in two independent injections using separate dedicated columns. […]

## CN[C@H](CC(C)C)C(=O)N[C@H]1C(=O)N[C@@H](CC(N)=O)C(=O)N[C@H]2C(=O)N[C@H]3C(=O)N[C@H](C(=O)N[C@H](C(=O)O)c4cc(O)cc(O)c4-c4cc3ccc4O)[C@H](O)c3ccc(c(Cl)c3)Oc3cc2cc(c3O[C@@H]2O[C@H](CO)[C@@H](O)[C@H](O)[C@H]2O[C@H]2C[C@](C)(N)[C@H](O)[C@H](C)O2)Oc2ccc(cc2Cl)[C@H]1O [vancomycin, Vancomycin]
rats; Dahl S rats
  response of susceptibility to ischemia/reperfusion injury: sensitive
rats; Sprague Dawley rats
  response of susceptibility to ischemia/reperfusion injury: intermediate response
rats; WAG/RijCmcr rats
  response of susceptibility to ischemia/reperfusion injury: resistant
[1]
  metabolites of tryptophan, phenylalanine and tyrosine in blood: decreased metabolites known to be modified by intestinal microbiota
  phenyllactate in blood: increased
